Legend:
[1] = molecular target: T1, recombinant human LTA4 hydrolase (rhLTA4H) (Homo sapiens, UniProt P09960); experiment: Recombinant human LTA4 hydrolase assay for LTA4 hydrolase inhibitor activity; assay type: biochemical; details: rhLTA4H, LTA4 substrate, LTB4 by immunoassay; single determination or average; read-out: IC50
T1 construct: made in house; host or cells: Spodoptera frugiperda (Sf-9) cells, recombinant baculovirus (pFastBac1)
T1 sequence (P09960 1-611): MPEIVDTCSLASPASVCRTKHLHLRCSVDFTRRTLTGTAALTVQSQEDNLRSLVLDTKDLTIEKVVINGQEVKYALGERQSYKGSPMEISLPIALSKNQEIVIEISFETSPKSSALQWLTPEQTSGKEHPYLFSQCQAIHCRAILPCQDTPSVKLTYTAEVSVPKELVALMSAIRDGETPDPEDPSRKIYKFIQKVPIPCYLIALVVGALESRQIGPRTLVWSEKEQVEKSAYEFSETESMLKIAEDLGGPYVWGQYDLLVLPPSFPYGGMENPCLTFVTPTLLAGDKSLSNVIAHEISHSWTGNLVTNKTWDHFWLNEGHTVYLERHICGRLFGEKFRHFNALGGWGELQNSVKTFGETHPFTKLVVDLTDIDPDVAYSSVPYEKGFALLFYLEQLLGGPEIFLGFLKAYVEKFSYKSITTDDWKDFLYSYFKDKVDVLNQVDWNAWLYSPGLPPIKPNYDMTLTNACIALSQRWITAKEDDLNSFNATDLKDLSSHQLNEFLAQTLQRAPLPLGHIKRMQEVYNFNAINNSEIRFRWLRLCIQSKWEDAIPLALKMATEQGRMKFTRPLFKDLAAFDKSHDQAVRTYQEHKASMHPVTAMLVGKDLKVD
Outline: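 LTB4 formed from LTA4 substrate (free acid from the methyl ester) was quantified by enzyme immunoassay after a 30 min rt reaction. Enzyme was 10 ng Sf-9-expressed human LTA4 hydrolase, pre-incubated 10 min with compound.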

[2] = tested on: LTB4 production by calcium ionophore-stimulated murine blood; experiment: LTB4 production by calcium ionophore-stimulated murine blood for LTA4H inhibitor activity; assay type: cell-based, CD-1 mice; details: Mus musculus; murine blood diluted 1 in 15, calcium ionophore A23187, LTB4 by immunoassay; read-out: IC50
Outline: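 LTB4 quantified by EIA in supernatants after murine (CD-1) heparinized whole blood was exposed to compound for 15 min, then to 7 μg/mL (final) A23187 for 30 min, all at 37° C. Reported values: single runs or means; three or more runs include SD.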

[3] = tested on: ex vivo stimulated LTB4 production; experiment: Murine arachidonic acid-induced inflammation model: ex vivo stimulated LTB4 production (% Inh. LTB4); details: Mus musculus; female Balb/c mice, 30 mg/kg oral gavage; blood taken 3 h after arachidonic acid, ex vivo A23187 stimulation; number of determinations in parentheses
Method: (§1) Assay 4: Murine Arachidonic Acid-Induced Inflammation Model
(§2) LTA4H inhibitor compounds of the present invention were dissolved in 20% cyclodextran/H2O at a concentration of 3 mg/mL. The solutions were administered by oral gavage to female Balb/c mice weighing approximately 20 grams each (0.2 mL per mouse, 30 mg of LTA4H inhibitor compound per kg). Sixty minutes after being administered an LTA4 inhibitor, each mouse received topical application of 20 μL of arachidonic acid (100 mg/mL in acetone) to the left ear and 20 μL of acetone only to the right ear. After 3 h, the mice were sacrificed, blood was withdrawn in heparinized syringes, and 8 mm ear biopsies were taken. Ear biopsies were weighed to determine edema and then frozen at −80° C. until needed for determination of neutrophil influx.
One hundred-microliter aliquots of heparinized blood were added to wells of a microtiter plate, along with equal volumes of RPMI-1640 medium, and calcium ionophore A23187 was added to each sample well (final concentration=[…]). The microtiter plate contents were incubated for 30 min at 37° C. in a humidified incubator. The reaction was terminated by centrifugation (833×g, 10 min at 4° C.). Supernatants were analyzed for LTB4 by a commercially available enzyme-linked immunoassay (Cayman Chemical Co.) in accordance with the manufacturer's instructions. The percent inhibition of ex vivo stimulated LTB4 production (% Inh. LTB4) was determined by comparison to animals treated identically except that the solution administered by oral gavage was devoid of inhibitor compound.
(§3) The number of determinations is indicated in parentheses following each value

neutrophil influx = experiment: Murine arachidonic acid-induced inflammation model: neutrophil influx in ear, myeloperoxidase activity (% Inh. MPO); assay type: in vivo; details: Mus musculus, female Balb/c mice, 30 mg/kg oral gavage, ear biopsy 3 h after topical arachidonic acid, number of determinations in parentheses
Method: as §1, §2
Neutrophil influx was quantified by measuring the activity of myeloperoxidase (MPO), a neutrophil-specific enzyme. The ear biopsies were homogenized in 0.5 mL extraction buffer (0.3 M sucrose, 0.22% (w/v) hexadecyl trimethyl ammonium bromide (CTAB), and 2.5 mM citrate prepared from 0.5 M citrate stock solution (pH 5.0)), in a Fast-Prep-24 (MP™) (40 seconds at 6 mps). Debris was removed by centrifugation at 14000×g for 10 min. Aliquots of 10 μL of the resulting supernatant were added to wells of a microtiter plate, along with 90-μL aliquots of dilution buffer (10 mM citrate, 0.22% CTAB), followed by addition of 20 μL TMB liquid substrate system (Sigma Chemical Co.) to each sample well. The microtiter plate contents were held at room temperature until the sample with the highest concentration of MPO reached an absorbance value of 0.4 at 650 nm. The reaction was stopped by addition of 50 μL 1 M H2SO4 to each sample well, and the myeloperoxidase activity in each sample was determined from the absorbance at 405 nm. The background value from the right ear, treated only with acetone, was subtracted from that for the left ear, treated with arachidonic acid in acetone, for each animal. The percent inhibition of neutrophil influx (% Inh. MPO) by compounds of the invention was determined by comparison to animals treated identically, except that the solution administered by oral gavage was devoid of inhibitor compound.
as §3

| IC50 [1] [µM] | IC50 [2] [µM] | Compound | inhibition at 30 mg/kg [3] [%] | inhibition in vivo at 30 mg/kg (neutrophil influx) [%] |
| --- | --- | --- | --- | --- |
| 0.0019 | 0.005 | CCN(CCO)CCc1ccc(Oc2nc3ncccc3s2)cc1 [Example 56, 2-(Ethyl{2-[4-([1,3]thiazolo[4,5-b]pyridin-2-yloxy)phenyl]ethyl}amino)ethanol] | 71.2 | 81.6 |
| 0.009 | 0.019 | c1cnc2nc(Oc3ccc(CCN4CCOCC4)cc3)sc2c1 [Example 59, 2-[4-(2-Morpholin-4-ylethyl)phenoxy][1,3]thiazolo[4,5-b]pyridine] | 92.7 | 89.9 |
| 0.003 | 0.015 | c1cnc2nc(Oc3ccc(CCN4CCCCC4)cc3)sc2c1 [Example 60, 2-[4-(2-Piperidin-1-ylethyl)phenoxy][1,3]thiazolo[4,5-b]pyridine] | 69.5 | 35.8 |
| 0.004 | 0.011 | c1cnc2nc(Oc3ccc(CCN4CCCC4)cc3)sc2c1 [Example 61, 2-[4-(2-Pyrrolidin-1-ylethyl)phenoxy][1,3]thiazolo[4,5-b]pyridine] | 67.4 | 62.8 |
| 0.012 | 0.04 | NC(=O)C1CCN(CCc2ccc(Oc3nc4ncccc4s3)cc2)CC1 [Example 66, 1-{2-[4-([1,3]Thiazolo[4,5-b]pyridin-2-yloxy)phenyl]ethyl}piperidine-4-carboxamide] | 76.2 | 60 |
| 0.006 | 0.02 | CC(=O)N1C[C@H]2C[C@@H]1CN2CCc1ccc(Oc2nc3ncccc3s2)cc1 [Example 79, 2-(4-{2-[(1R,4R)-5-Acetyl-2,5-diazabicyclo[2.2.1]hept-2-yl]ethyl}phenoxy)[1,3]thiazolo[4,5-b]pyridine] | 86.7 | 82.2 |
| 0.002 | 0.08 | NC(=O)N1C[C@H]2C[C@@H]1CN2CCc1ccc(Oc2nc3ncccc3s2)cc1 [Example 80, (1R,4R)-5-{2-[4-([1,3]Thiazolo[4,5-b]pyridin-2-yloxy)phenyl]ethyl}-2,5-diazabicyclo[2.2.1]heptane-2-carboxamide] | 72.1 | 37 |
| 0.0021 | 0.039 | c1cnc2nc(Oc3ccc(CN4CCCC4)cc3)sc2c1 [Example 84, 2-[4-(Pyrrolidin-1-ylmethyl)phenoxy][1,3]thiazolo[4,5-b]pyridine] | 53.9 | 72 |
| 0.0029 | 0.037 | c1cnc2nc(Oc3ccc(CN4CCCCC4)cc3)sc2c1 [Example 85, 2-[4-(Piperidin-1-ylmethyl)phenoxy][1,3]thiazolo[4,5-b]pyridine] | 66.8 | 48.4 |
| 0.012 | 0.06 | c1cnc2nc(Oc3ccc(CN4CCOCC4)cc3)sc2c1 [Example 86, 2-[4-(Morpholin-4-ylmethyl)phenoxy][1,3]thiazolo[4,5-b]pyridine] | 70.8 | 51.5 |

Further lines, the compound ahead of its results:

| Compound | IC50 [1] [µM] | IC50 [2] [µM] | inhibition at 30 mg/kg [3] [%] | inhibition in vivo at 30 mg/kg (neutrophil influx) [%] |
| --- | --- | --- | --- | --- |
| CC(=O)N[C@@H]1C[C@H]2CC[C@@H](C1)N2CCOc1ccc(Oc2nc3ncccc3s2)cc1 [Example 17, meso-N-[(3-exo)-8-{2-[4-([1,3]Thiazolo[4,5-b]pyridin-2-yloxy)phenoxy]ethyl}-8-azabicyclo[3.2.1]oct-3-yl]acetamide] | 0.002 | 0.025 | 81.5 | 63.4 |
| CC(=O)N1CC2CN(CCOc3ccc(Oc4nc5ncccc5s4)cc3)CC2C1 (stereo not drawn) [Example 18, 2-{4-[2-(5-Acetylhexahydropyrrolo[3,4-c]pyrrol-2(1H)-yl)ethoxy]phenoxy}[1,3]thiazolo[4,5-b]pyridine] | 0.0055 | 0.032 ± 0.024 | 80.9 | 86.1 |
| OC1(c2ccccc2)CCN(CCOc2ccc(Oc3nc4ncccc4s3)cc2)CC1 [Example 27, 4-Phenyl-1-{2-[4-([1,3]thiazolo[4,5-b]pyridin-2-yloxy)phenoxy]ethyl}piperidin-4-ol] | 0.032 | 0.16 | 78.2 | 83.7 |
| O=C1CCCN1C1CCN(CCc2ccc(Oc3nc4ncccc4s3)cc2)CC1 [Example 46, 1-(1-{2-[4-([1,3]Thiazolo[4,5-b]pyridin-2-yloxy)phenyl]ethyl}piperidin-4-yl)pyrrolidin-2-one] | 0.013 | 0.13 | 86.5 | 75.3 |
| CC(=O)N[C@@H]1C[C@H]2CC[C@@H](C1)N2CCc1ccc(Oc2nc3ncccc3s2)cc1 [Example 49, meso-N-[(3-exo)-8-{2-[4-([1,3]Thiazolo[4,5-b]pyridin-2-yloxy)phenyl]ethyl}-8-azabicyclo[3.2.1]oct-3-yl]acetamide] | 0.0007 | 0.076 | 83 | 66 |
| CC(=O)N[C@H]1C[C@H]2CC[C@@H](C1)N2CCc1ccc(Oc2nc3cccnc3s2)cc1 [Example 52, meso-N-[(3-endo)-8-{2-[4-([1,3]Thiazolo[5,4-b]pyridin-2-yloxy)phenyl]ethyl}-8-azabicyclo[3.2.1]oct-3-yl]acetamide] | 0.001 | 0.013 | 78.3 | 60.2 |
| NC(=O)N1C[C@H]2CC[C@@H](C1)N2CCc1ccc(Oc2nc3ncccc3s2)cc1 [Example 54, meso-8-{2-[4-([1,3]Thiazolo[4,5-b]pyridin-2-yloxy)phenyl]ethyl}-3,8-diazabicyclo[3.2.1]octane-3-carboxamide] | 0.0096 | 0.075 ± 0.071 | 81.2 | 87.7 |
| CC(=O)N[C@H]1C[C@H]2CC[C@@H](C1)N2CCc1ccc(Oc2nc3ncccc3s2)cc1 [Example 76, meso-N-[(3-endo)-8-{2-[4-([1,3]Thiazolo[4,5-b]pyridin-2-yloxy)phenyl]ethyl}-8-azabicyclo[3.2.1]oct-3-yl]acetamide] | 0.0005 | 0.065 | 85.3 | 78.3 |

From US20110190503A1, “Thiazolopyridin-2-yloxy-phenyl and thiazolopyrazin-2-yloxy-phenyl amines as modulators of leukotriene A4 hydrolase” (Janssen Pharmaceutical NV, priority 2008, published 2011)
